Assay results from PubChem BioAssay (NCI).
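1) Cells in 96-well plates. 2) Compound, 48 h, 5 concentrations. 3) Linear interpolation between surrounding doses. 4) Unreached endpoint = highest concentration. The concentration for 50% growth inhibition is given as GI50. TGI: total growth inhibition.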

Experiments:
Experiment in all cases: NCI-60 cell line screen, 48 h
T-47D breast = test system: T-47D breast
NCI-H226 lung = test system: NCI-H226 lung
OVCAR-3 ovarian = test system: OVCAR-3 ovarian
HCC-2998 colon = test system: HCC-2998 colon
HL-60(TB) leukemia = test system: HL-60(TB) leukemia
HS 578T breast = test system: HS 578T breast
NCI-H522 lung = test system: NCI-H522 lung
SK-MEL-5 melanoma = test system: SK-MEL-5 melanoma
A498 renal = test system: A498 renal
SK-OV-3 ovarian = test system: SK-OV-3 ovarian

Row | SMILES | TGI (T-47D breast) [µM] | TGI (NCI-H226 lung) [µM] | TGI (OVCAR-3 ovarian) [µM] | TGI (HCC-2998 colon) [µM] | TGI (HL-60(TB) leukemia) [µM] | TGI (HS 578T breast) [µM] | TGI (NCI-H522 lung) [µM] | TGI (SK-MEL-5 melanoma) [µM] | TGI (A498 renal) [µM] | TGI (SK-OV-3 ovarian) [µM] | GI50 (T-47D breast) [µM] | GI50 (NCI-H226 lung) [µM] | GI50 (OVCAR-3 ovarian) [µM] | GI50 (HCC-2998 colon) [µM] | GI50 (HL-60(TB) leukemia) [µM] | GI50 (HS 578T breast) [µM] | GI50 (NCI-H522 lung) [µM] | GI50 (SK-MEL-5 melanoma) [µM] | GI50 (A498 renal) [µM] | GI50 (SK-OV-3 ovarian) [µM]
1 | C[C@]12CCNC(=O)C=C1CC[C@@H]1C2CC[C@@]2(C)C1CC[C@@H]2OC(=O)COc1ccc(N(CCCl)CCCl)cc1 (stereo partly drawn) | 9.03 | 28.5 | 8.25 | 15 | 7.4 | 98.1 | 3.08 | 24.6 | 36.1 | 21.7 |  |  |  |  |  |  |  |  |  | 
2 | CCOC(=O)c1ccc2c(c1)[n+](=O)c(C(C)=O)c(C(F)(F)F)n2[O-] | 3.06 | 3.93 | 2.93 | 2.45 | 3.08 | 3.96 | 3.84 | 2.84 | 3.16 | 3.34 | 1.29 | 1.8 | 1.49 | 1.05 | 1.44 | 1.4 | 1.8 | 1.5 | 1.33 | 1.64
3 | CCOC(=O)c1cnn2c3ccccc3n(S(=O)(=O)c3ccc(OC)cc3)c12 | > 100 | > 100 | 0.493 | 30.1 | 0.695 | > 100 | 38.8 | 2.27 | 0.764 | > 100 | 13.8 | 2.6 | 0.181 | 0.349 | 0.226 | 0.459 | 0.338 | 0.319 | 0.209 | 0.786
4 | Nc1ccccc1C#C/C=C\C#Cc1c(F)c(F)c(F)c(F)c1F | 61.6 | 26.7 | 32.9 | 37.6 | 57.1 | > 100 | 31.3 | 45 | 55.8 | > 100 | 23 | 11.3 | 15.3 | 19.4 | 28.8 | 32.7 | 11.9 | 20 | 25.5 | 33.9
5 | O=C1c2ccccc2C(=O)c2c(NCC3CO3)ccc(NCC3CO3)c21 (stereo not drawn) | > 42.1 | 35.4 | 15.1 | > 81.4 |  | 15.3 | 20.1 | 6.44 | > 83.9 | > 47 |  |  |  |  |  |  |  |  |  | 
6 | COc1cccc(C2C3=C(COC3=O)N(CCO)c3cc4c(cc32)OCO4)c1 (stereo not drawn) | > 50 | > 50 | 0.286 | 1.2 | 0.352 | 45.2 | 0.187 | > 50 | 5.1 | > 13.8 | 0.263 | 23.2 | 0.121 | 0.211 | 0.132 | 0.251 | 0.051 | 0.177 | 0.263 | 0.289
7 | CCN1C[C@]2(COC)[C@H](O)C[C@H](OC)[C@]34C1[C@H]([C@H](OC)[C@H]23)[C@]1(OC(C)=O)[C@H]2[C@@H](OC(=O)c3ccccc3)[C@](O)(C[C@H]24)[C@@H](OC)[C@@H]1O | > 100 | > 100 |  | > 100 | > 100 | > 100 | > 100 | > 100 | > 100 | > 100 |  |  |  |  |  |  |  |  |  | 
8 | Cc1ccc(NCCN(C)C)c2c(=O)c3ccccc3sc12 | 4.96 | 3.96 | 3.73 | 2.92 | 4.15 | 3.76 | 5.38 | 2.83 | 2.52 | 3.92 | 1.82 | 1.83 | 1.86 | 1.57 | 1.72 | 1.59 | 1.89 | 1.49 | 1.14 | 1.73
9 | Cc1c(C(N)=O)sc2c1c(=O)n(Cc1ccccc1)c1nnc(-c3ccc(Br)cc3)n21 | 18.9 | 9.82 | 16.9 | 14.6 | 38.8 | 54.9 | 12.9 | 4.89 | 12.7 | 16.3 | 3.38 | 2.46 | 2.48 | 1.91 | 4.42 | 5.2 | 3.13 | 1.47 | 2.3 | 2.97
10 | NNC(=O)c1ccc(OCc2nc3ccccc3[nH]2)cc1 | > 100 | > 100 | > 100 |  | > 100 | > 100 | > 100 | > 100 | > 100 | > 100 |  |  |  |  |  |  |  |  |  | 
11 | COc1cc2c(=O)n(CCN(C)C)c3c4cc5c(cc4ccc3c2cc1OC)OCO5 | 0.486 | 1.27 | 19 | 1.36 | 3.74 | > 13.1 | 1.21 | 0.559 | 0.603 | 1.87 | 0.111 | 0.512 | 0.583 | 0.53 | 0.239 | 0.973 | 0.114 | 0.152 | 0.0417 | 0.275
12 | CN1CCN(Cc2ccc3c(NNC(=O)c4ccccc4)nc4cc(F)ccc4n23)CC1 | 22.8 | 9.71 | 40.1 | 49.6 | 1.91 | > 100 | 12.9 | 3.28 | 8.81 | > 100 | 0.593 | 0.442 | 0.337 | 0.526 | 0.335 | 5.73 | 0.55 | 0.577 | 0.658 | 0.371
13 | Clc1ccccc1C(Nc1ncccn1)Nc1ncccn1 | > 100 | > 100 | > 100 | > 100 | > 100 | > 100 | > 100 | > 100 | > 100 | > 100 |  |  |  |  |  |  |  |  |  | 
14 | CC12CCC3c4cc(Br)c(O)c(Br)c4CCC3C1CCC2O (stereo not drawn) | 83.8 | 34.5 | 56.4 | 25.3 | 66.6 | 49.4 |  |  | 36.3 | 51.4 |  |  |  |  |  |  |  |  |  | 
15 | NC(=S)N=Nc1c(O)c2ccccc2c2ccccc12 | > 100 | 70.1 | 10.2 | > 100 | 46 | 7.96 | 9.66 | 2.9 | 45.7 | 54.2 | 14 | 21.3 | 3.02 | 36.3 | 20 | 2.17 | 3.22 | 1.41 | 14.9 | 21.5
16 | C[C@@H]1COCCN1c1cc(C2([S@@](C)(=N)=O)CC2)nc(-c2ccnc3[nH]ccc23)n1 | 33.4 | 98.7 | > 91.1 | > 100 | 41.5 | 34.9 | > 100 | 26.4 | 4.2 | 27.4 | 3.43 | 4.26 | 7.07 | 4.69 | 3.87 | 3.73 | 8.05 | 6.87 | 0.716 | 2.95
17 | O=C(Nc1ccccc1O)c1ccc(NS(=O)(=O)c2cccc3cccnc23)cc1 | 4.16 | 7.27 | 5.61 | 5.23 | 12.9 | 11.8 | 3.47 | 3.42 | 1.62 | 6.17 | 0.559 | 2.36 | 1.42 | 1.59 | 1.03 | 0.787 | 0.67 | 0.838 | 0.208 | 1.32
18 | N#Cc1c(N)nc(NCc2ccccc2)c(C#N)c1-c1ccc(Cl)cc1Cl | > 100 | > 100 | > 100 | > 100 | > 100 | > 100 | > 100 | > 100 | > 100 | > 100 | 72.3 | > 100 | > 64.2 | > 100 |  | 85.7 | > 68.7 | > 100 | > 100 | > 100
19 | COc1ccccc1NS(=O)(=O)c1ccc2oc(SC(C)C)nc2c1 | > 100 | 43.9 | 40.4 | 51.4 | 29.1 | > 100 | 75.7 | 17.4 | 61.7 | > 100 | 8.98 | 10.3 | 19.3 | 27 | 6.09 | 33.6 | 10.2 | 3.99 | 23.3 | 33.5
20 | CC1=C(C)C2(O)C(=C(C)C1=O)/C(=C(/O)c1ccccc1)c1nc3ccccc3n12 (stereo not drawn) | 33.1 | 58.1 | 38.6 |  | 56.7 | 94.6 | 44.2 | 31.3 | 45.4 | 42.2 | 14.5 | 23.6 | 12.6 |  | 18.3 | 29.3 | 19.6 | 16.6 | 23.7 | 18.2
21 | COc1ccc(C(CC(=O)c2ccccc2)C(C(=O)c2ccccc2)C(c2ccc(OC)cc2)C2C(=O)NC(=S)NC2=O)cc1 (stereo not drawn) | > 100 | > 100 | 24.8 | 16.6 | > 100 | 47.9 | 35.1 | 22.7 | 23.2 | > 100 | 13.2 | 38.4 | 4.96 | 2.46 | 20.1 | 10.5 | 11.9 | 10.5 | 3.19 | > 100
22 | COc1cccc(/C(C)=N/NC(=O)CSc2nc3ccccc3c(=O)n2CCc2ccc(S(N)(=O)=O)cc2)c1 | 29.3 | 13 | 4.8 | 62.9 | > 100 | 15.9 | 9.65 | 4.24 | 24.8 | 4.88 | 6.44 | 3.29 | 2.32 | 24 | > 100 | 3.54 | 2.66 | 2.03 | 8.02 | 2.26
23 | Cc1ccc(-c2nc(-c3cn(C)c4ncccc34)cs2)cc1 | 18.6 | 24.7 | 11.3 | 22.8 | 26.2 | 26.6 | 16.7 | 14.6 | 8.24 | 27.5 | 2.53 | 4.35 | 3.23 | 8.96 | 2.54 | 4.71 | 2.14 | 3.7 | 0.277 | 6.86
24 | CN(C)c1ccc(C(c2ccc(Cl)cc2)c2ccc(N(C)C)cc2)cc1 | > 100 |  | > 100 | > 100 | > 100 | > 100 | > 100 | > 100 | > 100 | > 100 |  |  |  |  |  |  |  |  |  | 
25 | CNS(=O)(=O)OCC1OC(n2cnc3c(N)ncnc32)C(O)C1O (stereo not drawn) | > 100 | > 100 | > 100 | > 100 |  | > 100 | > 100 | > 100 | > 100 | > 100 | > 100 | > 100 | > 100 | > 100 |  | > 100 | > 100 | > 100 | > 100 | > 100
26 | COc1ccc(Nc2nc3cc(N)cc(N)c3nc2-c2ccccc2)cc1OC | 38.2 | 57.1 | > 100 | 39.6 |  | 50.2 | > 100 | 25.5 | 55.7 | 87.5 | 14.4 | 18.7 | 29.9 | 18.4 |  | 18.5 | 28.9 | 12.2 | 11.7 | 38.2
27 | COc1ccc(N(/C=C/C(=O)C(F)(F)F)CC(=O)c2ccc(Cl)cc2)cc1 | > 100 | 31.6 | 36.2 | 36.2 |  | 67.3 | 30 | 29.5 | 28.7 | 36.4 | 21.9 | 16.5 | 12.8 | 17 |  | 25 | 12.7 | 15 | 13.9 | 19.2
28 | COc1cc(-n2ccnc2)cc(OC)c1OC | > 100 | > 100 | > 100 | > 100 |  | > 100 | > 100 | > 100 | > 100 | > 100 | > 100 | 36.2 | 51.6 | 99.5 |  | > 100 | 60.6 | 59 | 35.8 | 80.2
